Source: patent US8551961B2, “Localized delivery of cardiac inotropic agents” (Massachusetts Institute of Technology, priority 2005, dated 2013)
“Also recorded” adds a separate entry of the source.

Test system: Sprague Dawley rats
Test: Pericardial application of dobutamine to the left ventricular free wall in anesthetized rats, hemodynamic recording
Format: in vivo, rat
Description: Sprague Dawley rats ([…]) were anesthetized with an intraperitoneal injection of ketamine and xylazine. The rat was laid on a heating pad and maintained euthermic with warming lights. A 24 gauge intravenous catheter was placed in the tail vein and Ringer's lactate solution (LR) was infused at 10 cc/hr. The trachea was exposed through a vertical incision and cannulated with a 16 gauge blunt cannula that served as an endotracheal tube. The tube was connected to a ventilator for control of ventilation and respiration. The respiratory rate was set to 60 breaths per minute, inspiratory to expiratory time was set to 1:2 and inspiratory flow was 2 liters per minute. A midline sternotomy was performed, the heart exposed and the pericardium resected. The right carotid artery was dissected clean of fascia and care was taken to preserve the adjacent vagus nerve. A polyethelene (PE-50) cannula was inserted via an arteriotomy into the carotid artery and advanced through the ascending aorta into the left ventricle. This ventricular cannula was connected to a high fidelity pressure transducer and digital data acquisition system to record hemodynamic measures. Heart rate (HR), left ventricular systolic blood pressure (SBP), and the maximum rate of change of blood pressure in the left ventricle during isovolemic contraction (dp/dt max) was all recorded. The dp/dt max is the gold standard index of myocardial contractility.
Following cannulation the rat was stabilized for 30 minutes. Five-second recordings of HR, SBP and dp/dt max were captured every 3 to 5 minutes. SBP and dp/dt max were averaged over all the beats captured in the 5-second interval. Dobutamine (313 mcg/ml), a potent beta agonist inotropic agent, was delivered to the left ventricular free wall through the sternotomy using an infusion pump connected to a 24 gauge IV cannula that was suspended directly over the heart (4 mcg/min, 0.8 ml/hr). […] After 30 minutes the pericardial application of dobutamine was terminated and hemodynamic measurements were recorded for an additional 30 minutes.

With `CC(CCc1ccc(O)cc1)NCCc1ccc(O)c(O)c1` (stereo not drawn) [dobutamine] the “Left ventricular systolic blood pressure / systemic blood pressure” value (dobutamine 4 mcg/min for 30 minutes, local pericardial delivery, FIG. 2) was “increased”, the Heart rate (dobutamine 4 mcg/min for 30 minutes, topical application to the heart, FIG. 3) was “increased” and the “Contractility (max dp/dt of left ventricular pressure during isovolemic contraction)” value (dobutamine 313 mcg/ml, 4 mcg/min (0.8 ml/hr) for 30 minutes, applied directly to left ventricular free wall, FIG. 1) was “increased significantly; also recorded: significantly increased”.
